Consider one substance from US20140093942A1, “GENE, ARS-R ANCHORAGE CASSETTE, ARS-R EXPRESSION-ANCHORAGE CASSETTE, RECOMBINANT PLASMID, BACTERIAL TRANSGENIC LINEAGE, USE OF SAID GENE, USE OF SAID LINEAGE IN ENVIRONMENTAL BIOREMEDIATION PROCESSES” (UNIVERSIDADE DE SÃO PAULO - USP, priority 2012, published 2014).

One experiment has as its system E. coli UT5600. Nature of the experiment: Minimal Inhibitory Concentration (MIC) of Na3As04, wild type E. coli UT5600. It counts as cell-based, Escherichia coli. The following applies: Na3As04 0-50 mM, 28° C., 48 h, OD600. The protocol: (§1) Panel C illustrates the comparison between the growth levels of E. coli wild type and recombinant cells in the presence of different concentrations of Na3As04 ranging from 0-50 mM. After incubation at 28° C. for 48 h, the bacterial growth was measured by reading the absorbance at 600 nm (OD600) in a spectrophotometer.
(§2) To find out whether the recombinant E. coli UT5600/pCM-As lineage had increased resistance to arsenate ions, as compared to the UT5600 lineage from which it is derived, the MIC against Na3As04 of each of the lineages was determined.
(§3) The final bacterial growth in different Na3As04 concentrations was quantified by Absorbance reading at 600 ηm (FIG. 10C). The assays were performed in triplicate, showing similar results.

The subject of another experiment is E. coli UT5600/pCM-As. Nature of the experiment: Minimal Inhibitory Concentration (MIC) of Na3As04, recombinant E. coli UT5600/pCM-As. Format: cell-based, Escherichia coli. The following applies: Na3As04 0-50 mM, 28° C., 48 h, OD600. The protocol:
as §1, §2, §3

The next experiment relates to C. metallidurans CH34. Nature of the experiment: Minimal Inhibitory Concentration (MIC) of Na3As04, wild type C. metallidurans CH34. It counts as cell-based, Cupriavidus metallidurans. The following applies: Na3As04 0-1,000 mM, 28° C., 48 h, OD600. The protocol:
After incubation at 28° C. for 48 h, the bacterial growth was measured by reading the absorbance at 600 nm (OD600) in a spectrophotometer.
The MIC of C. metallidurans CH34 and C. metallidurans CH34/pCM-As cells against As5+ ions were also studied. […] The MIC of Na3As04 for C. metallidurans CH34/pCM-As was above 1,000 mM, indicating an increase in survivability to As5+ ions above 100% (FIG. 11B). The bacterial growth for the MIC assays was quantified by Absorbance reading at 600 nm (FIG. 11C). The assays were performed in triplicate, showing similar results.

Turning to sodium arsenate [Na3As04], the entries for the “Minimum Inhibitory Concentration (MIC)” value in the experiment with E. coli UT5600, in the experiment on E. coli UT5600/pCM-As and with C. metallidurans CH34 were 25 mM, 50 mM and 500 mM, respectively.
